This passage reports EC50 and IC50 results from patent US9169252B2 (BRISTOL-MYERS SQUIBB COMPANY, priority 2014, dated 2015).

The test system of assay [1] is TLR2 induced IL-6 in peripheral blood mononuclear cells (PBMCs). Briefly: PBMC TLR2 Induced IL-6 Assay. Format: cell-based, human. As to conditions: Homo sapiens, PBMC, PBMC TLR2 Induced IL-6 Assay, lipoteichoic acid stimulation, IL-6 by ELISA; for EC50: read-out: Cell EC50; for IC50: read-out: Cell IC50. The gist of the method: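 Lipoteichoic acid at 10 µg/ml served as TLR2 stimulus for 5 hours, following a 30-minute compound pretreatment at 37° C. Cells were Ficoll-isolated human PBMCs, 250000 cells/well, cultured in RPMI plus 10% heat-inactivated FCS.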
Background: In an ELISA, binding on a coated surface is turned into a signal by an enzyme label.

In the next assay the target is IRAK4 (Homo sapiens (Human), UniProt Q9NWZ3). The assay can be described thus: IRAK4 Inhibition Assay. Particulars: IRAK4 Inhibition Assay; ATP 500 μM; read-out: IRAK4 IC50. The format is biochemical. The gist of the method: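 Mobility-shift readout: fluorescent substrate and phosphoproduct resolved electrophoretically on Caliper LabChip 3000 after EDTA quench (35 mM). Enzyme reaction of IRAK4, substrates and test compound ran 60 min at room temperature.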
IRAK4, sequence (Q9NWZ3 whole entry, species assumed): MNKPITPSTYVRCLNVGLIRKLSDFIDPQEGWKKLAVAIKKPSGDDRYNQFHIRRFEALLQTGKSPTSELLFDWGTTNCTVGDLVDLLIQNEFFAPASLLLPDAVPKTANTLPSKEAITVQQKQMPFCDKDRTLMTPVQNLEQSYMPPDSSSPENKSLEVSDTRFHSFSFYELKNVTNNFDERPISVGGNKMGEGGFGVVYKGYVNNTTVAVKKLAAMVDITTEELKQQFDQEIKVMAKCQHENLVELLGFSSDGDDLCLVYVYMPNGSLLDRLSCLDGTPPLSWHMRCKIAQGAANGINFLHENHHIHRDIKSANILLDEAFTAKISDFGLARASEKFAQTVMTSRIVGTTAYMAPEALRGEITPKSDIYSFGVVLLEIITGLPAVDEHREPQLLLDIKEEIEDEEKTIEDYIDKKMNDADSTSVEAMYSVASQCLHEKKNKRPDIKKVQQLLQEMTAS

As a reminder, the EC50 is the concentration needed to bring the measured effect to its halfway point. As usually defined, the IC50 is the concentration that gives 50% inhibition. Turning to `CC(C)(O)[C@H](F)CNC(=O)c1cnc(-n2ccc3cc(C#N)cnc32)cc1NCC1(O)CCC1` [Example 28, (R)-6-(5-cyano-1H-pyrrolo[2,3-b]pyridin-1-yl)-N-(2-fluoro-3-hydroxy-3-methylbutyl)-4-(((1-hydroxycyclobutyl)methyl)amino)nicotinamide], the EC50 in assay [1] came out at 80 nM. Also, at IRAK4, the IC50 turned out to be 2.8 nM.
In the same order, the values of `CC(C)(O)[C@H](F)CNC(=O)c1cnc(-n2ccc3cc(C#N)cnc32)cc1NCC1COC1` [Example 29, (R)-6-(5-cyano-1H-pyrrolo[2,3-b]pyridin-1-yl)-N-(2-fluoro-3-hydroxy-3-methylbutyl)-4-((oxetan-3-ylmethyl)amino) nicotinamide] are 141 nM and 3.7 nM.
For `CC(C)(O)[C@H](F)CNC(=O)c1cnc(-n2ccc3cc(C#N)cnc32)cc1N[C@@H]1CCC[C@H]1O` [Example 30, 6-(5-cyano-1H-pyrrolo[2,3-b]pyridin-1-yl)-N—((R)-2-fluoro-3-hydroxy-3-methylbutyl)-4-(((1R,2R)-2-hydroxycyclopentyl)amino)nicotinamide], in assay [1], the EC50 turned out to be 101 nM and the IC50 amounted to 184 nM. At IRAK4, the IC50 amounted to 2.2 nM.
Take `CC(C)(O)[C@H](F)CNC(=O)c1cnc(-n2ccc3cc(Cl)cnc32)cc1NC1CCC1` [Example 31, (R)-6-(5-chloro-1H-pyrrolo[2,3-b]pyridin-1-yl)-4-(cyclobutylamino)-N-(2-fluoro-3-hydroxy-3-methylbutyl)nicotinamide]: in assay [1], the EC50 stood at 367 nM and the IC50 turned out to be 1080 nM. Further, the IC50 on IRAK4 turned out to be 3.4 nM.
`CC(C)(O)[C@H](F)CNC(=O)c1cnc(-n2ccc3cc(Cl)cnc32)cc1NC1CCOCC1` [Example 32, (R)-6-(5-chloro-1H-pyrrolo[2,3-b]pyridin-1-yl)-N-(2-fluoro-3-hydroxy-3-methylbutyl)-4-((tetrahydro-2H-pyran-4-yl)amino) nicotinamide]: in assay [1], the EC50 came to 75 nM and the IC50 was found to be 562 nM. Besides, the IC50 on IRAK4 stood at 1.9 nM.
On to `CCNc1cc(-n2ccc3cc(Cl)cnc32)ncc1C(=O)NC[C@@H](F)C(C)(C)O` [Example 33, (R)-6-(5-chloro-1H-pyrrolo[2,3-b]pyridin-1-yl)-4-(ethylamino)-N-(2-fluoro-3-hydroxy-3-methylbutyl)nicotinamide], for which the EC50 in assay [1] came out at 661 nM. The IC50 was 403 nM in assay [1] and 7.1 nM at IRAK4.
In the same order, the values of `CC(C)(O)[C@H](F)CNC(=O)c1cnc(-n2ccc3cc(Cl)cnc32)cc1NC1CC1` [Example 34, (R)-6-(5-chloro-1H-pyrrolo[2,3-b]pyridin-1-yl)-4-(cyclopropylamino)-N-(2-fluoro-3-hydroxy-3-methylbutyl)nicotinamide] are 180 nM, 407 nM and 5.3 nM.
For `CC(C)(O)CNc1cc(-n2ccc3cc(Cl)cnc32)ncc1C(=O)NC[C@@H](F)C(C)(C)O` [Example 35, (R)-6-(5-chloro-1H-pyrrolo[2,3-b]pyridin-1-yl)-N-(2-fluoro-3-hydroxy-3-methylbutyl)-4-((2-hydroxy-2-methylpropyl)amino)nicotinamide], in assay [1], the EC50 amounted to 117 nM and the IC50 amounted to 452 nM. In addition, the IC50 on IRAK4 is 2.1 nM.
For `CC(C)(O)CCNC(=O)c1cnc(-n2ccc3cc(Cl)cnc32)cc1NC1CCOCC1` [Example 36, 6-(5-chloro-1H-pyrrolo[2,3-b]pyridin-1-yl)-N-(3-hydroxy-3-methylbutyl)-4-((tetrahydro-2H-pyran-4-yl)amino)nicotinamide], the EC50 in assay [1] amounted to 133 nM. For the same molecule, the IC50 at IRAK4 worked out at 3.1 nM.
The like results for `CC(C)Nc1cc(-n2ccc3cc(Cl)ccc32)ncc1C(=O)NC[C@@H](F)C(C)(C)O` [Example 37, (R)-6-(5-chloro-1H-indol-1-yl)-N-(2-fluoro-3-hydroxy-3-methylbutyl)-4-(isopropylamino)nicotinamide] were, in that order, 1230 nM and 11.8 nM.
With `CC(C)Nc1cc(-n2ccc3cc(F)cnc32)ncc1C(=O)NC[C@@H](F)C(C)(C)O` [Example 38, (R)-6-(5-fluoro-1H-pyrrolo[2,3-b]pyridin-1-yl)-N-(2-fluoro-3-hydroxy-3-methylbutyl)-4-(isopropylamino)nicotinamide], the EC50 in assay [1] came to 84 nM. The IC50 at IRAK4 was 1.6 nM.
Regarding `CC(C)Nc1cc(-n2ccc3cncnc32)ncc1C(=O)NC[C@@H](F)C(C)(C)O` [Example 39, (R)—N-(2-fluoro-3-hydroxy-3-methylbutyl)-4-(isopropylamino)-6-(7H-pyrrolo[2,3-d]pyrimidin-7-yl)nicotinamide], in assay [1], the EC50 is 151 nM and the IC50 stood at 151 nM. Moreover, the IC50 on IRAK4 came to 1.1 nM.
As to `CC(C)(O)[C@H](F)CNC(=O)c1cnc(-n2ccc3cncnc32)cc1NC1CCOCC1` [Example 40, (R)—N-(2-fluoro-3-hydroxy-3-methylbutyl)-6-(7H-pyrrolo[2,3-d]pyrimidin-7-yl)-4-((tetrahydro-2H-pyran-4-yl)amino)nicotinamide], the EC50 in assay [1] was found to be 175 nM. The IC50 in assay [1] came out at 175 nM; at IRAK4, 2 nM.
For `CC(C)(O)[C@H](F)CNC(=O)c1cnc(-n2ccc3cncnc32)cc1NC1CC1` [Example 41, (R)-4-(cyclopropylamino)-N-(2-fluoro-3-hydroxy-3-methylbutyl)-6-(7H-pyrrolo[2,3-d]pyrimidin-7-yl)nicotinamide], in assay [1], the half-maximal effective concentration (EC50) came out at 220 nM and the IC50 was 220 nM. For the same molecule, on IRAK4, the IC50 came out at 1.9 nM.
Turning to `CC(C)(O)CNc1cc(-n2ccc3cncnc32)ncc1C(=O)NC[C@@H](F)C(C)(C)O` [Example 42, (R)—N-(2-fluoro-3-hydroxy-3-methylbutyl)-4-((2-hydroxy-2-methylpropyl)amino)-6-(7H-pyrrolo[2,3-d]pyrimidin-7-yl)nicotinamide], in assay [1], the EC50 was 612 nM and the IC50 came to 940 nM. Besides, the IC50 on IRAK4 came to 13.6 nM.
Take `CC(C)(O)CCNC(=O)c1cnc(-n2ccc3cncnc32)cc1NC1CCOCC1` [Example 43, N-(3-hydroxy-3-methylbutyl)-6-(7H-pyrrolo[2,3-d]pyrimidin-7-yl)-4-((tetrahydro-2H-pyran-4-yl)amino)nicotinamide]: the EC50 in assay [1] came to 316 nM. For the same molecule, the IC50 on IRAK4 came to 6 nM.
With `CC(C)Nc1cc(-n2ccc3cncnc32)ncc1C(=O)NCCC(C)(C)O` [Example 44, N-(3-hydroxy-3-methylbutyl)-4-(isopropylamino)-6-(7H-pyrrolo[2,3-d]pyrimidin-7-yl)nicotinamide], the EC50 in assay [1] is 98 nM. In addition, on IRAK4, the IC50 was 4.2 nM.
On to `CC(=O)Nc1cnc2c(ccn2-c2cc(NC(C)C)c(C(=O)NC[C@@H](F)C(C)(C)O)cn2)c1` [Example 45, (R)-6-(5-acetamido-1H-pyrrolo[2,3-b]pyridin-1-yl)-N-(2-fluoro-3-hydroxy-3-methylbutyl)-4-(isopropylamino)nicotinamide], for which the EC50 in assay [1] was determined as 148 nM. In addition, the IC50 at IRAK4 turned out to be 23.2 nM.
For `CC(C)(O)[C@H](F)CNC(=O)c1cnc(-n2ccc3cc(C#N)cnc32)cc1Nc1cccc(O)c1` [Example 46, (R)-6-(5-cyano-1H-pyrrolo[2,3-b]pyridin-1-yl)-N-(2-fluoro-3-hydroxy-3-methylbutyl)-4-((3-hydroxyphenyl)amino)nicotinamide], the EC50 in assay [1] was 23 nM. Further, the IC50 at IRAK4 is 2.2 nM.
For `CC(C)Nc1cc(-n2ccc3cc(C#N)cnc32)ncc1C(=O)NCCCOC(C)C` [Example 47, 6-(5-cyano-1H-pyrrolo[2,3-b]pyridin-1-yl)-N-(3-isopropoxypropyl)-4-(isopropylamino) nicotinamide], the EC50 in assay [1] is 173 nM. Besides, the IC50 on IRAK4 came out at 5.6 nM.
With `CC(C)(O)[C@H](F)CNC(=O)c1cnc(-n2ccc3cc(C#N)cnc32)cc1Nc1cccc(S(N)(=O)=O)c1` [Example 50, (R)-6-(5-cyano-1H-pyrrolo[2,3-b]pyridin-1-yl)-N-(2-fluoro-3-hydroxy-3-methylbutyl)-4-((3-sulfamoylphenyl)amino)nicotinamide], in assay [1], the EC50 was found to be 58 nM. Also, the IC50 on IRAK4 was determined as 1.9 nM.
Regarding `CC(C)(O)[C@H](F)CNC(=O)c1cnc(-n2ccc3cc(C#N)cnc32)cc1NC[C@@H](F)C(C)(C)O` [Example 52, 6-(5-cyano-1H-pyrrolo[2,3-b]pyridin-1-yl)-N—((R)-2-fluoro-3-hydroxy-3-methylbutyl)-4-(((R)-2-fluoro-3-hydroxy-3-methylbutyl)amino)nicotinamide], the EC50 in assay [1] was found to be 66 nM. In addition, at IRAK4, the IC50 was found to be 2.4 nM.
For the molecule `CC(C)(O)[C@H](F)CNC(=O)c1cnc(-n2ccc3cc(C#N)cnc32)cc1NC1CC(F)(F)C1` [Example 53, (R)-6-(5-cyano-1H-pyrrolo[2,3-b]pyridin-1-yl)-4-((3,3-difluorocyclobutyl)amino)-N-(2-fluoro-3-hydroxy-3-methylbutyl)nicotinamide], in assay [1], the EC50 turned out to be 271 nM. For the same molecule, the IC50 on IRAK4 was 1.9 nM.
The like results for `CC(=O)Nc1cccc(Nc2cc(-n3ccc4cc(C#N)cnc43)ncc2C(=O)NC[C@@H](F)C(C)(C)O)c1` [Example 54, (R)-4-((3-acetamidophenyl)amino)-6-(5-cyano-1H-pyrrolo[2,3-b]pyridin-1-yl)-N-(2-fluoro-3-hydroxy-3-methylbutyl) nicotinamide] were, in that order, 254 nM and 1.8 nM.
Take `CNC(=O)c1cccc(Nc2cc(-n3ccc4cc(C#N)cnc43)ncc2C(=O)NC[C@@H](F)C(C)(C)O)c1` [Example 55, (R)-6-(5-cyano-1H-pyrrolo[2,3-b]pyridin-1-yl)-N-(2-fluoro-3-hydroxy-3-methylbutyl)-4-((3-(methylcarbamoyl)phenyl)amino)nicotinamide]: in assay [1], the EC50 worked out at 513 nM. The IC50 on IRAK4 came to 3.6 nM.
